Patent publication US9334286B2, “Pharmacologically active compounds” (Cancer Research Technology Limited, priority 2012, dated 2016)

target: full length MPS1 (Homo sapiens (Human), UniProt P33981); assay: Measurement of inhibition of MPS1 kinase (Caliper EZ reader, fluorescent labelled peptide H236); type: biochemical; details: full length MPS1 12.5 nM or 3 nM, peptide H236 5 μM, ATP 10 μM, 60 min at room temperature
Sequence (P33981 whole entry): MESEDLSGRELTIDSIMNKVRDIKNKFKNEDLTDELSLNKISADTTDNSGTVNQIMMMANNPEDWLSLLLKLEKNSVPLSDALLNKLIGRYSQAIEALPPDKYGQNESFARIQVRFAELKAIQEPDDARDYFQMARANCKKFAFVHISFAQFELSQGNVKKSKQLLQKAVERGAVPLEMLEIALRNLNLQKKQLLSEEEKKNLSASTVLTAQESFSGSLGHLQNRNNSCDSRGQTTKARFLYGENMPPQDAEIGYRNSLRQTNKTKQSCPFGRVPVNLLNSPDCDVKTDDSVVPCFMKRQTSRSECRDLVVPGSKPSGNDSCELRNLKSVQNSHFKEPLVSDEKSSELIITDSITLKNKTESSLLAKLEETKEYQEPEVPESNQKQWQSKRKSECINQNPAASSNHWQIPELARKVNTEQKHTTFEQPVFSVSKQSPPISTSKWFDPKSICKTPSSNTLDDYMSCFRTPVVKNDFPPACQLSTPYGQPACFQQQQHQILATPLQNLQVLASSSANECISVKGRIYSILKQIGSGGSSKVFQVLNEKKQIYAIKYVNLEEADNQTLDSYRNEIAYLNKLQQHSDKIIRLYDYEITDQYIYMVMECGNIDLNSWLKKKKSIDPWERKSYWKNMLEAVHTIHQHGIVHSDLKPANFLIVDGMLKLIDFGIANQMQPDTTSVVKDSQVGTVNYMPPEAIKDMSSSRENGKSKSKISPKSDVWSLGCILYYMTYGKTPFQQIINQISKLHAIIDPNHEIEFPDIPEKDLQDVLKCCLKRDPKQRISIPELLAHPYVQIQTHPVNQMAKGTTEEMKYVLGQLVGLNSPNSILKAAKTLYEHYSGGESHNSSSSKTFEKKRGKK

IC50 | SMILES
1 nM | COc1cc(-c2ncnn2C)ccc1Nc1cc2cc(-c3cnn(CC(C)(C)O)c3)ccc2cn1 [Example 64, 1-(4-(3-((2-Methoxy-4-(1-methyl-1H-1,2,4-triazol-5-yl)phenyl)amino)isoquinolin-6-yl)-1H-pyrazol-1-yl)-2-methylpropan-2-ol]
2 nM | COc1cc(C(=O)N2CCS(=O)(=O)CC2)ccc1Nc1cc2cc(-c3cnn(CC(C)(C)O)c3)ccc2cn1 [Example 65, (1,1-Dioxidothiomorpholino)(4-((6-(1-(2-hydroxy-2-methylpropyl)-1H-pyrazol-4-yl)isoquinolin-3-yl)amino)-3-methoxyphenyl)methanone]
2 nM | COc1cc(C(=O)N2CCN(C)CC2)ccc1Nc1cc2cc(-c3cnn(CC(C)(C)O)c3)ccc2cn1 [Example 66]
5 nM | COc1cc(C(=O)NC2CCN(C)CC2)ccc1Nc1cc2cc(-c3cnn(CC(C)(C)O)c3)ccc2cn1 [Example 67, 4-((6-(1-(2-Hydroxy-2-methylpropyl)-1H-pyrazol-4-yl)isoquinolin-3-yl)amino)-3-methoxy-N-(1-methylpiperidin-4-yl)benzamide]
2 nM | COc1cc(-c2cnc(C)n2CC(C)(C)O)ccc1Nc1cc2cc(-c3cnn(CC(C)(C)O)c3)ccc2cn1 [Example 69, 1-(5-(4-((6-(1-(2-Hydroxy-2-methylpropyl)-1H-pyrazol-4-yl)isoquinolin-3-yl)amino)-3-methoxy-phenyl)-2-methyl-1H-imidazol-1-yl)-2-methylpropan-2-ol]
3 nM | COCCn1cc(-c2ccc3cnc(Nc4ccc(C(=O)N5CC(OC)C5)cc4OC)cc3c2)cn1 [Example 72, (3-Methoxy-4-((6-(1-(2-methoxyethyl)-1H-pyrazol-4-yl)isoquinolin-3-yl)amino)phenyl)(3-methoxyazetidin-1-yl)methanone]
3 nM | COc1cc(C(=O)N2CC(OC)C2)ccc1Nc1cc2cc(-c3cnn(CC(C)(C)OC)c3)ccc2cn1 [Example 74, (3-Methoxy-4-((6-(1-(2-methoxy-2-rnethylpropyl)-1H-pyrazol-4-yl)isoquinolin-3-yl)amino)-phenyl)(3-methoxyazetidin-1-yl)methanone]
23 nM | Cc1nnc(-c2ccc(Nc3cc4cc(-c5cnn(CC(C)(C)O)c5)ccc4cn3)c(Cl)c2)o1 [Example 77, 1-(4-(3-((2-Chloro-4-(5-methyl-1,3,4-oxadiazol-2-yl)phenyl)amino)isoquinolin-6-yl)-1H-pyrazol-1-yl)-2-methylpropan-2-ol]
3 nM | COc1cc(S(=O)(=O)N(C)C)ccc1Nc1cc2cc(-c3cnn(CC(C)(C)O)c3)ccc2cn1 [Example 80, 4-((6-(1-(2-Hydroxy-2-methylpropyl)-1H-pyrazol-4-yl)isoquinolin-3-yl)amino)-3-methoxy-N,N-dimethylbenzenesulfonamide]
5 nM | COc1cc(-c2cnc(C#N)n2C)ccc1Nc1cc2cc(-c3cnn(CC(C)(C)O)c3)ccc2cn1 [Example 84, 5-(4-((6-(1-(2-Hydroxy-2-methylpropyl)-1H-pyrazol-4-yl)isoquinolin-3-yl)amino)-3-methoxyphenyl)-1-methyl-1H-imidazole-2-carbonitrile]
7 nM | COCC1CN(C(=O)c2ccc(Nc3cc4cc(-c5cnn(CC(C)(C)O)c5)ccc4cn3)c(OC)c2)C1 [Example 86, (4-((6-(1-(2-Hydroxy-2-methylpropyl)-1H-pyrazol-4-yl)isoquinolin-3-yl)amino)-3-methoxy-phenyl)(3-(methoxymethyl)azetidin-1-yl)methanone]
8 nM | COc1cc(C(=O)N2CC(OC)C2)ccc1Nc1cc2cc(-c3cnn(CC4(O)CCC4)c3)ccc2cn1 [Example 87, (4-((6-(1-((1-Hydroxycyclobutyl)methyl)-1H-pyrazol-4-yl)isoquinolin-3-yl)amino)-3-methoxy-phenyl)(3-methoxyazetidin-1-yl)methanone]
7 nM | CCOc1cc(-c2nncn2C)ccc1Nc1cc2cc(-c3cnn(CC4(O)CCC4)c3)ccc2cn1 [Example 88, 1-((4-(3-((2-Ethoxy-4-(4-methyl-4H-1,2,4-triazol-3-yl)phenyl)amino)isoquinolin-6-yl)-1H-pyrazol-1-yl)methyl)cyclobutanol]
472 nM | COc1cc(-c2cnc(C)n2C)ccc1Nc1cc2cc(C(=O)N(C)C)ccc2cn1 [Example 89, 3-((4-(1,2-Dimethyl-1H-imidazol-5-yl)-2-methoxyphenyl)amino)-N,N-dimethylisoquinoline-6-carboxamideone]
5 nM | CNC(=O)c1ccc2cnc(Nc3ccc(-c4cnc(C)n4C)cc3OC)cc2c1 [Example 90, 3-((4-(1,2-Dimethyl-1H-imidazol-5-yl)-2-methoxyphenyl)amino)-N-methylisoquinoline-6-carboxamide]
2 nM | COC1CN(C(=O)c2ccc(Nc3cc4cc(-c5cnn(CC(C)(C)O)c5)ccc4cn3)c(OC(F)F)c2)C1 [Example 91, (3-(Difluoromethoxy)-4-(6-(1-(2-hydroxy-2-methylpropyl)-1H-pyrazol-4-yl)isoquinolin-3-ylamino)phenyl)(3-methoxyazetidin-1-yl)methanone]
2 nM | CCOc1cc(C(=O)N2CC(OC)C2)ccc1Nc1cc2cc(-c3cnn(CC(C)(C)O)c3)ccc2cn1 [Example 92, (3-Ethoxy-4-(6-(1-(2-hydroxy-2-methylpropyl)-1H-pyrazol-4-yl)isoquinolin-3-ylamino)phenyl)(3-methoxyazetidin-1-yl)methanone]
5 nM | COc1cc(C(=O)N2CC(F)(F)C2)ccc1Nc1cc2cc(-c3cnn(CC(C)(C)O)c3)ccc2cn1 [Example 93, (3,3-Difluoroazetidin-1-yl)(4-(6-(1-(2-hydroxy-2-methylpropyl)-1H-pyrazol-4-yl)isoquinolin-3-ylamino)-3-methoxyphenyl)methanone]
2 nM | COc1cc(C(=O)N2CCC(C#N)CC2)ccc1Nc1cc2cc(-c3cnn(CC(C)(C)O)c3)ccc2cn1 [Example 94, 1-(4-(6-(1-(2-Hydroxy-2-methylpropyl)-1H-pyrazol-4-yl)isoquinolin-3-ylamino)-3-methoxybenzoyl)piperidine-4-carbonitrile]
1 nM | COc1cc(C(=O)N2CC3(CCOC3)C2)ccc1Nc1cc2cc(-c3cnn(CC(C)(C)O)c3)ccc2cn1 [Example 95, (4-(6-(1-(2-Hydroxy-2-methylpropyl)-1H-pyrazol-4-yl)isoquinolin-3-ylamino)-3-methoxyphenyl)(6-oxa-2-azaspiro[3,4]octan-2-yl)methanone]
2 nM | COc1cc(C(=O)N2CC(OC)C2)ccc1Nc1cc2cc(-c3cn(CC(C)(C)O)nn3)ccc2cn1 [Example 96, (4-(6-(1-(2-Hydroxy-2-methylpropyl)-1H-1,2,3-triazol-4-yl)isoquinolin-3-ylamino)-3-methoxyphenyl)(3-methoxyazetidin-1-yl)methanone]
9 nM | COc1cc(C(=O)N2CC(OC)C2)ccc1Nc1cc2cc(-c3cnn(CC(C)(C)O)n3)ccc2cn1 [Example 97, (4-(6-(2-(2-Hydroxy-2-methylpropyl)-2H-1,2,3-triazol-4-yl)isoquinolin-3-ylamino)-3-methoxyphenyl)(3-methoxyazetidin-1-yl)methanone]
6 nM | COc1cc(-c2cnn(C)c2)ccc1Nc1cc2nc(-c3cnn(C)c3)ccc2cn1 [Example 100, N-(2-Methoxy-4-(1-methyl-1H-pyrazol-4-yl)phenyl)-2-(1-methyl-1H-pyrazol-4-yl)-1,6-naphthyridin-7-amine]
2 nM | COc1cc(-c2cnc(C)n2C)ccc1Nc1cc2nc(-c3cnn(CC(C)(C)O)c3)ccc2cn1 [Example 102, 1-(4-(7-(4-(1,2-Dimethyl-1H-imidazol-5-yl)-2-methoxyphenylamino)-1,6-naphthyridin-2-yl)-1H-pyrazol-1-yl)-2-methylpropan-2-ol]
1 nM | CCOc1cc(-c2nncn2C)ccc1Nc1cc2nc(-c3cnn(CC(C)(C)O)c3)ccc2cn1 [Example 103, 1-(4-(7-(2-Ethoxy-4-(4-methyl-4H-1,2,4-triazol-3-yl)phenylamino)-1,6-naphthyridin-2-yl)-1H-pyrazol-1-yl)-2-methylpropan-2-ol]
2 nM | COc1cc(C(=O)N2CC(OC)C2)ccc1Nc1cc2nc(-c3cnn(CC(C)(C)O)c3)ccc2cn1 [Example 104, (4-(2-(1-(2-Hydroxy-2-methylpropyl)-1H-pyrazol-4-yl)-1,6-naphthyridin-7-ylamino)-3-methoxyphenyl)(3-methoxyazetidin-1-yl)methanone]
1 nM | COc1cc(-c2nncn2C)ccc1Nc1cc2nc(-c3cnn(CC(C)(C)O)c3)ccc2cn1 [Example 105, 1-(4-(7-(2-Methoxy-4-(4-methyl-4H-1,2,4-triazol-3-yl)phenylamino)-1,6-naphthyridin-2-yl)-1H-pyrazol-1-yl)-2-methylpropan-2-ol]
1 nM | COc1cc(-c2cnc(C)n2C)ccc1Nc1cc2nc(-c3cnn(CC4(O)CCC4)c3)ccc2cn1 [Example 106, 1-((4-(7-(4-(1,2-Dimethyl-1H-imidazol-5-yl)-2-methoxyphenylamino)-1,6-naphthyridin-2-yl)-1H-pyrazol-1-yl)methyl)cyclobutanol]

SMILES | IC50
COc1cc(-c2nnc3n2CCN(C)C3)ccc1Nc1cc2cc(-c3cnn(CC(C)(C)O)c3)ccc2cn1 [Example 70, 1-(4-(3-((2-Methoxy-4-(7-methyl-5,6,7,8-tetrahydro-[1,2,4]triazolo[4,3-a]pyrazin-3-yl)-phenyl)amino)isoquinolin-6-yl)-1H-pyrazol-1-yl)-2-methylpropan-2-ol] | 2 nM
COc1cc(-c2cnn(C)c2)ccc1Nc1cc2nc(-c3cnn(CC(C)(C)O)c3)ccc2cn1 [Example 101, 1-(4-(7-(2-Methoxy-4-(1-methyl-1H-pyrazol-4-yl)phenylamino)-1,6-naphthyridin-2-yl)-1H-pyrazol-1-yl)-2-methylpropan-2-ol] | 3 nM
COc1cc(-c2cnn(C)c2)ccc1Nc1cc2nc(C(=O)N(C)C)ccc2cn1 [Example 107, 7-(2-Methoxy-4-(1-methyl-1H-pyrazol-4-yl)phenylamino)-N,N-dimethyl-1,6-naphthyridine-2-carboxamide] | 411 nM
